{"source": "patent US20070299065A1", "about": "“Tetrahydropyran Derivatives as Antidiabetics” (MERCK PATENT GMBH, priority 2004, published 2007)", "data": [{"smiles": "CCc1ccn(Cc2ccccc2O[C@@H]2O[C@H](CO)[C@@H](O)[C@H](O)[C@H]2O)c(=O)c1", "note": "[compound 1, 4-ethyl-1-[2-((2S,3R,4S,5S,6R)-3,4,5-trihydroxy-6-hydroxymethyltetrahydropyran-2-yloxy)benzyl]-1H-pyridin-2-one]", "values": [{"measurement": "melting point", "result": 174, "unit": "°C"}]}]}
